Here are results for two molecules from ChEMBL document CHEMBL1126245, “Synthesis and anti-HIV activity of 9-[c-4,t-5-bis(hydroxymethyl)cyclopent-2-en-r-1-yl]-9H-adenine” (J Med Chem, 1992).

≈ marks a conversion by molar mass, not a printed value.

One data set relates to MT4. Put plainly: In vitro antiviral activity against HIV-1 in MT-4 Cell. The settings on record: Homo sapiens; for EC50: read-out: ED50 (the source's name); for IC50: read-out: ID50 (the source's name). In kind it is functional.
Data set [1] can be described thus: Therapeutic index (TI) was determined by dividing the ID50 by the ED50. In kind it is cell-based. Conditions: human, MT4 cells; read-out: TI.

Consider `Nc1nc(O)c2ncn(C3C=CC(CO)C3CO)c2n1` (stereo not given), for which, in the data set on MT4, the EC50 is above 100 µg/mL and the IC50 is above 100 µg/mL.
With `Nc1ccn([C@H]2CC[C@@H](CO)O2)c(=O)n1` [ZALCITABINE], in the data set with MT4, the EC50 was found to be 0.011 µg/mL (≈ 0.0521 µM) and the IC50 was 27 µg/mL (≈ 128 µM). For the same molecule, the selectivity ratio in data set [1] turned out to be 2450.
